Legend:
Assay in all cases: relative viability (nuclei count vs DMSO), 5 days (fraction); higher = more cells survive
HCC-78 = test system: HCC-78
In short: (§1)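 One day after seeding in 1536-well plates, lung cancer cell lines were dosed by pin tool. Dosing was either single-drug or a fixed anchor-drug dose plus five library-drug doses (not always all listed) in √10 steps. After 5 days, nuclei were stained in one fix-and-stain step and counted on 4× images, and relative viability is the nuclei count of treated wells over that of vehicle wells, given as the median of duplicate plates.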

LCLC-97TM1 = test system: LCLC-97TM1
In short: as §1

EMC-BAC-2 = test system: EMC-BAC-2
In short: as §1

NCI-H727 = test system: NCI-H727
In short: as §1

NCI-H1734 = test system: NCI-H1734
In short: as §1

EKVX = test system: EKVX
In short: as §1

ChaGo-K-1 = test system: ChaGo-K-1
In short: as §1

NCI-H2087 = test system: NCI-H2087
In short: as §1

EPLC-272H = test system: EPLC-272H
In short: as §1

RERF-LC-KJ = test system: RERF-LC-KJ
In short: as §1

NCI-H358 = test system: NCI-H358
In short: as §1

NCI-H1944 = test system: NCI-H1944
In short: as §1

## O=C(O)CCCCC(CCSCc1ccccc1)SCc1ccccc1 (configuration not stated) [CPI-613] + COc1cccc2cc(-c3nc([C@H]4CC[C@H](C(=O)O)CC4)n4ncnc(N)c34)[nH]c12 [OSI-027] (partner 0.5 µM)
HCC-78; first compound 50 µM
  relative viability: 0.373
HCC-78; first compound 158.11 µM
  relative viability: 0.351
HCC-78; first compound 500 µM
  relative viability: 0.4
LCLC-97TM1; first compound 5 µM
  relative viability: 0.508
LCLC-97TM1; first compound 15.81 µM
  relative viability: 0.519
LCLC-97TM1; first compound 50 µM
  relative viability: 0.67
LCLC-97TM1; first compound 158.11 µM
  relative viability: 0.474
LCLC-97TM1; first compound 500 µM
  relative viability: 0.0503
EMC-BAC-2; first compound 5 µM
  relative viability: 0.385
EMC-BAC-2; first compound 15.81 µM
  relative viability: 0.334
EMC-BAC-2; first compound 50 µM
  relative viability: 0.337
EMC-BAC-2; first compound 158.11 µM
  relative viability: 0.181
EMC-BAC-2; first compound 500 µM
  relative viability: 0.0272
NCI-H727; first compound 5 µM
  relative viability: 0.554
NCI-H727; first compound 15.81 µM
  relative viability: 0.624
NCI-H727; first compound 50 µM
  relative viability: 0.461
NCI-H727; first compound 158.11 µM
  relative viability: 0.339
NCI-H727; first compound 500 µM
  relative viability: 0.334
NCI-H1734; first compound 5 µM
  relative viability: 0.58
NCI-H1734; first compound 15.81 µM
  relative viability: 0.55
NCI-H1734; first compound 50 µM
  relative viability: 0.571
NCI-H1734; first compound 158.11 µM
  relative viability: 0.325
NCI-H1734; first compound 500 µM
  relative viability: 0.1
EKVX; first compound 5 µM
  relative viability: 0.631
EKVX; first compound 15.81 µM
  relative viability: 0.624
EKVX; first compound 50 µM
  relative viability: 0.718
EKVX; first compound 158.11 µM
  relative viability: 0.673
EKVX; first compound 500 µM
  relative viability: 0.693
ChaGo-K-1; first compound 5 µM
  relative viability: 0.61
ChaGo-K-1; first compound 15.81 µM
  relative viability: 0.509
ChaGo-K-1; first compound 50 µM
  relative viability: 0.53
ChaGo-K-1; first compound 158.11 µM
  relative viability: 0.377
ChaGo-K-1; first compound 500 µM
  relative viability: 0.0966
NCI-H2087; first compound 5 µM
  relative viability: 0.501
NCI-H2087; first compound 15.81 µM
  relative viability: 0.462
NCI-H2087; first compound 50 µM
  relative viability: 0.471
NCI-H2087; first compound 158.11 µM
  relative viability: 0.195
NCI-H2087; first compound 500 µM
  relative viability: 0.0169
EPLC-272H; first compound 5 µM
  relative viability: 0.279
EPLC-272H; first compound 15.81 µM
  relative viability: 0.307
EPLC-272H; first compound 50 µM
  relative viability: 0.263
EPLC-272H; first compound 158.11 µM
  relative viability: 0.261
EPLC-272H; first compound 500 µM
  relative viability: 0.0195
RERF-LC-KJ; first compound 5 µM
  relative viability: 0.553
RERF-LC-KJ; first compound 15.81 µM
  relative viability: 0.491
RERF-LC-KJ; first compound 50 µM
  relative viability: 0.513
RERF-LC-KJ; first compound 158.11 µM
  relative viability: 0.114
RERF-LC-KJ; first compound 500 µM
  relative viability: 0.0544
NCI-H358; first compound 15.81 µM
  relative viability: 0.655
NCI-H358; first compound 50 µM
  relative viability: 0.639
NCI-H358; first compound 158.11 µM
  relative viability: 0.303
NCI-H358; first compound 500 µM
  relative viability: 0.0233
NCI-H1944; first compound 5 µM
  relative viability: 0.391
NCI-H1944; first compound 15.81 µM
  relative viability: 0.388
NCI-H1944; first compound 50 µM
  relative viability: 0.351
NCI-H1944; first compound 158.11 µM
  relative viability: 0.274
NCI-H1944; first compound 500 µM
  relative viability: 0.0492
